# Assay results from patent US20020009713A1, “Methods for identifying modulators of neuronal growth” (priority 2000, published 2002).
# B1: NGF: nerve growth factor purified from mouse salivary glands (protein, UniProt P01139 122-241, looked up)
# Beta-nerve growth factor: SSTHPVFHMGEFSVCDSVSVWVGDKTTATDIKGKEVTVLAEVNINNSVFRQYFFETKCRASNPVESGCRGIDSKHWNSYCTTTHTFVKALTTDEKQAAWRFIRIDTACVCVLSRKATRRG
# B2: BDNF: brain-derived neurotrophic factor; recombinant human BDNF (protein, UniProt P23560 19-247, looked up)
# Neurotrophic factor BDNF …: APMKEANIRGQGGLAYPGVRTHGTLESVNGPKAGSRGLTSLADTFEHVIEELLDEDQKVRPNEENNKDADLYTSRVMLSSQVPLEPPLLFLLEEYKNYLDAANMSMRVRRHSDPARRGELSVCDSISEWVTAADKKTAVDMSGGTVTVLEKVPVSKGQLKQYFYETKCNPMGYTKEGCRGIDKRHWNSQCRTTQSYVRALTMDSKKRIGWRFIRIDTSCVCTLTIKRGR
# Legend:
# rat sympathetic neurons [1] = assay: MTT survival assay of cultured sympathetic neurons; type: cell-based
# Procedure: Neurons were plated at low density (approximately one ganglion/well) in Nunclon™ 4-well culture dishes (Gibco BRL, Burlington, Ontario, Canada), coated with either rat tail collagen or poly-D-lysine and laminin (both from Collaborative Biomedical Products, Bedford, Mass.). Culture medium was UltraCulture (BioWhittaker, Walkersville, Md.), supplemented with 3% rat serum (Harlan Bioproducts, Madison, Wis.), 2 mM glutamine, 100 U/ml penicillin, 100 μg/ml streptomycin (all from BioWhittaker), and for the first two days, 7 μM cytosine arabinoside (Sigma-Aldrich Canada Ltd., Oakville, Ontario, Canada).
# (§1) NGF-dependent neurons were selected by culturing sympathetic neurons for five days in the presence of 50 ng/ml NGF. Neurons were washed three times for one hour each in neurotrophin-free media, and were then fed with media containing 10 ng/ml NGF alone, or various concentrations of NGF plus either 100 ng/ml BDNF, 10 μg/ml αBDNF, or a 1:100 dilution of antiserum containing the p75^NTR antibody, REX (Weskamp and Reichardt, Neuron 6: 649-663, 1991). Each condition was repeated in triplicate, and analysis of survival was performed 48 hours later by using nonradioactive cell proliferation (MTT) assays (Celltitre 96; Promega; Belliveau et al., J. Cell Biol. 136:375-388, 1997). Specifically, 50 μl of the MTT reagent was added to 500 μl media in each well, and incubated for two hours at 37° C. After aspiration of the MTT containing media, 100 μl of a 0.065N HCl/isopropanol mixture was added to each well to lyse the cells, and colorimetric analysis was performed using an ELISA reader. For rat sympathetic neurons, 10 ng/ml NGF represents 100% survival, therefore all other values were considered to be relative to 10 ng/ml NGF. For mouse neurons, 7.5 ng/ml NGF represents 100% survival, and was thus considered to be the 100% survival threshold for neuritogenesis experiments.
# sympathetic neurons [2] = assay: Quantitative dot-blot of MAP2 association with microtubules and microtubule stability; type: cell-based, rat; settings: for amount of MAP2 bound to microtubules: two days
# Procedure: FIG. 22 is a schematic illustration showing immuno-dot blot analysis of MAP2 association and tubulin dynamics in SCG neurons. […]
# (§2) Microtubules were isolated from cultured sympathetic neurons, and the relative amount of MAP2 present per microgram tubulin was determined using quantitative dot-blot analysis. […] Depolarization enhances MAP2 levels and CamKII phosphorylation in sympathetic neurons. We performed western blot analysis of sympathetic neurons treated with 10 ng/ml NGF, 50 mM KCl, or NGF+KCl. Lysates containing equal amounts of protein were separated by SDS-PAGE, transferred to nitrocellulose, and then probed for MAP2, phosphorylated-CamKII, phosphorylated-ERKs, or total ERK protein. KCl increases the amount of MAP2 present in sympathetic neurons, and enhances CamKII phosphorylation.
# (§3) Inhibition of either CamKII or MEK is sufficient to inhibit activitydependent dendrite formation. Immunocytochemical analysis for MAP2 on sympathetic neurons cultured in the presence of NGF+KCl with or without 10 um KN62, 75 um PD98059, 100 nM H-89 or 10 uM forskolin. […] In this study, microtubule stability was determined in sympathetic neurons maintained in NGF or NGF+KCl, and treated with selective pharmacological inhibitors.
# sympathetic neurons [3] = assay: Western blot / biochemical analysis of MAP2, phosphorylated-CamKII and phosphorylated-ERKs; type: cell-based, rat; settings: for MAP2 levels: FIG. 27, NGF, KCl and kinase inhibitors
# Procedure: as §2
# ERK, Akt, CamKII = assay: Check of inhibitor selectivity for ERK, Akt and CamKII pathways; type: cell-based
# sympathetic neurons [4] = assay: Activity-dependent dendrite formation, MAP2 immunocytochemistry and image analysis; type: cell-based, rat; settings: for activity-dependent dendrite formation (MAP2): NGF+KCl, 10 um KN62, 75 um PD98059
# Procedure: Dendritic growth can be measured as follows. Ninty-six-well plates are coated for […] with rat tail collagen (prepared in a dilution of 1% glacial acetic acid). After one hour, excess collagen is aspirated and allow to dry completely. SCG neurons are dissected, triturated and plated. Cells may also be plated onto 8-well chamber slides. Cells are fed after about three days and, after about five days, are switched to either 50 mM KCl or 10 ng/ml NGF+50 mM KCl for about three additional days. Neurons are washed briefly with PBS and then fixed for 10 minutes with 4% formaldehyde in PBS (freshly prepared). Excess fixative is removed by 3×5 min washes with PBS. Cells are stained for one hour at room temperature with the following antibodies with 3×5 min PBS washes after each incubation: primary antibody—mouse monoclonal IgG1 anti high molecular weight MAP2 (clone AP20, from Sigma), secondary antibody—donkey anti mouse CY3, minimum cross to mouse and rabbit (Jackson Immunochemicals). Cell are mounted and at least three fields of view are captured using an upright fluorescence microscope using 530 excitation/580 emission filters. For each individual neuron in a given field (minimum 250 neurons total), the distance of MAP2 positive staining from the perimeter of the cell body is measured. These measurements are performed and tabulated using NIH image. The tabulated data are then expressed as a population histogram, binning all the measured lengths into 2 μm bins. This analysis gives an overall measure of the extent of dendritic differentiation in the population.
# Neuronal depolarization causes dendrite formation in cultured sympathetic neurons, and NGF enhances this dendritogenesis. FIGS. 19A-19C, 20A, 20B show immunocytochemical analysis of sympathetic neurons cultured in the presence of NGF, switched to 10 ng/ml NGF, 50 mM KCl, or 10 ng/ml NGF+50 mM KCl for two days, and then stained for the dendrite-specific protein MAP2. FIGS. 20A and 20B are high magnification views of fields similar to those shown at lower-magnification in FIGS. 19A and 19C, respectively. The MAP2-immunoreactive processes show morphology characteristic of dendrites. The amount of dendritic formation could be readily quantified.
# as §3
# [5] = tested on: mouse sympathetic neurons; assay: MTT survival assay of mouse sympathetic neurons; type: cell-based
# Procedure: CD-1 mouse sympathetic neurons were cultured by a modification of the method used to prepare rat neurons. Mouse cultures were essentially prepared the same way, but were dissociated in UltraCulture medium rather than Hanks' balanced saline solution. 3% fetal bovine serum (Gibco) was used instead of rat serum, and 3.5 μM cytosine arabinoside was added to the culture medium on day one post-plating.
# as §1, with “Each condition was repeated in triplicate, and analysis of survival was performed 48 hours later by using nonradioactive cell proliferation (MTT) assays (Celltitre 96; Promega; Belliveau et al., J.” left out, “For mouse neurons, 7.5 ng/ml NGF represents 100% survival, and was thus considered to be the 100% survival threshold for neuritogenesis experiments.” left out
# TrkB = assay: BDNF neutralization: TrkB tyrosine phosphorylation in TrkB-expressing NIH-3T3 cells; type: cell-based; settings: 50 ng/ml BDNF, five minutes
# Procedure: To test the capacity of anti-BDNF to neutralize BDNF, TrkB-expressing NIH-3T3 cells were cultured in Dulbecco's modified Eagle medium. Briefly, cells were washed twice and incubated for one hour at 37° C. in buffer, followed by a 30 minute wash at 37° C. in a phosphate-free buffer. Treatment consisted of incubating cells for five minutes with either 50 ng/ml BDNF (Promega) or with BDNF preabsorbed for four hours at 4° C. with increasing concentrations of the BDNF antibody (5-40 μg/ml). In addition, TrkB-3T3 cells were treated with medium only, or medium plus 40 μg/ml nonimmune chicken IgY. Following these treatments, cells were lysed, immunoprecipitated with anti-pan Trk (Hempstead et al., Neuron 9:883-896, 1992), and the immunoprecipitates analyzed for TrkB activation by Western blot analysis with phosphotyrosine antibody 4G10 (Upstate Biotechnology Inc., Lake Placid, N.Y.).
# rat sympathetic neurons [6] = assay: In vitro neuritogenesis assay (neuritic process density); type: cell-based; settings: 100 ng/ml BDNF in 10 ng/ml NGF, two days, six experiments
# Procedure: Regulation of neuronal growth was analyzed by an in vitro neuritogenesis assay. Postnatal day one rat sympathetic neurons were cultured in 50 ng/ml NGF for two to three days in order to upregulate p75^NTR, whose increased expression in response to NGF occurs independently of neuronal survival. Following a one hour wash in neurotrophin-free medium, cultures were maintained for an additional two days in 10 ng/ml NGF plus or minus 100 ng/ml BDNF. Fields in sister cultures containing a similar number of neuronal cell bodies were then photographed, and neuritic process density was determined as described below. […]
# Quantitative analysis was performed by using common statistics applied to random sets of lines and determining the number of intersection points per unit area. […] Low density fields were photographed, and the number of visible intersections and bifurcations of cell processes per unit area was considered to be a quantitative measure of process density. Since the number of neurites is a direct function of the number of neurons, however, the number of intersections and bifurcations counted per unit area was normalized to the number of cell bodies in that same area of interest. […] Results are expressed as the mean density plus or minus the standard error of the mean.
# [7] = tested on: murine sympathetic neurons; assay: Neuritogenesis assay in wild type and p75NTR-/- murine sympathetic neurons; type: cell-based, mouse; settings: 7.5 ng/ml NGF plus 100 ng/ml BDNF
# [8] = 10 ng/ml NGF added to 50 mM KCl
molecule,measurement,setting,value
O=S(=O)(NCCNC/C=C/c1ccc(Br)cc1)c1cccc2cnccc12 [H-89],survival of sympathetic neurons (MTT),rat sympathetic neurons [1]; cultured in NGF or NGF+KCl,None of these compounds perturbs
[Cl-].[K+] [KCl],amount of MAP2 bound to microtubules,sympathetic neurons [2]; 50 mM KCl,greatly enhances
same,CamKII phosphorylation,sympathetic neurons [3]; 50 mM KCl,enhances
same,amount of MAP2 present in sympathetic neurons,sympathetic neurons [3]; 50 mM KCl,increases
CN([C@@H](Cc1ccc(OS(=O)(=O)c2cccc3cnccc23)cc1)C(=O)N1CCN(c2ccccc2)CC1)S(=O)(=O)c1cccc2cnccc12 [KN-62],ERK or Akt activation,"ERK, Akt, CamKII",do not affect
same,survival of sympathetic neurons (MTT),rat sympathetic neurons [1]; cultured in NGF or NGF+KCl,None of these compounds perturbs
same,survival of sympathetic neurons (MTT),rat sympathetic neurons [1]; cultured only in 50 mM KCl,dramatically reduces
same,activity-dependent dendrite formation (MAP2),sympathetic neurons [4],completely abolished
same,KCl-induced increase in microtubule stability,sympathetic neurons [2]; neurons maintained in NGF or NGF+KCl,completely inhibit
same,MAP2 levels,sympathetic neurons [3],reduce
COc1cccc(-c2cc(=O)c3ccccc3o2)c1N [PD98059],CamKII activity,"ERK, Akt, CamKII",does not affect
same,activity-dependent dendrite formation (MAP2),sympathetic neurons [4],completely abolished
same,MAP2 levels,sympathetic neurons [3],reduce
B1,KCl-dependent dendritic growth,sympathetic neurons [4]; [8],greatly enhances
same,dendritic growth (MAP2-positive dendrite length),sympathetic neurons [4]; 10 ng/ml NGF on its own,little ability to cause dendritic growth
same,amount of MAP2 bound to microtubules,sympathetic neurons [2]; [8],enhances this effect to some degree
same,mouse sympathetic neuron survival (MTT),"[5]; 5, 7.5 and 10 ng/ml NGF, three days",maximal
same,ERK phosphorylation,sympathetic neurons [3]; 10 ng/ml NGF compared with 50 mM KCl,more potent stimulator
B2,tyrosine phosphorylation of TrkB,TrkB,robust increase
same,average decrease of process network density,rat sympathetic neurons [6],40%
same,sympathetic neuron survival (MTT),"rat sympathetic neurons [1]; 100 ng/ml BDNF in 10 ng/ml NGF, two days",no effect
same,effect on growth,[7]; p75NTR-/- neurons,no effect
same,average decrease of neuronal growth,[7]; wild type mouse cultures,35%
same,mouse sympathetic neuron survival (MTT),[5]; 7.5 or 10 ng/ml NGF plus 100 ng/ml BDNF,did not affect
